Data published in patent US10131652B2, “Pyrimidinyloxy benzene derivatives as herbicides” (E. I. DU PONT DE NEMOURS AND COMPANY, priority 2014, dated 2018).

Tests used:
Type in all cases: in vivo
[1] = test system: pigweed (Amaranthus retroflexus); assay: Test B pre-/postemergence plant response
How it was run: (§1)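 Seeds in loam–sand blend given preemergence soil spray; separately, plants at one- to two-leaf stage (2–10 cm) sprayed postemergence, compounds in non-phytotoxic solvent with surfactant. Injury rated visually versus untreated controls after ~10 days in greenhouse, 0 (no effect) to 100 (complete control).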

corn (Zea mays) = assay: Test B pre-/postemergence plant response; conditions: 0 to 100 scale, 0 no effect, 100 complete control
How it was run: as §1

[2] = test system: wheat (Triticum aestivum); assay: Test B pre-/postemergence plant response; conditions: 0 to 100 scale, 0 no effect, 100 complete control
How it was run: as §1

[3] = test system: barnyardgrass (Echinochloa crus-galli); assay: Test B pre-/postemergence plant response
How it was run: as §1

[4] = test system: giant foxtail (Setaria faberii); assay: Test B pre-/postemergence plant response
How it was run: as §1

[5] = test system: ducksalad (Heteranthera limosa); assay: Test C flooded paddy test plant response; conditions: Flood, 250 g ai/ha; scale of 0 to 100 where 0 is no effect and 100 is complete control; 13 to 15 days
How it was run: (§2)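 Plants grown to the 2-leaf stage; pots flooded to 3 cm above soil, test compounds applied directly to paddy water, depth maintained throughout. Greenhouse for 13 to 15 days, then visual rating versus controls on a 0–100 scale (0 no effect, 100 complete control).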

rice (Oryza sativa) = assay: Test C flooded paddy test plant response; conditions: Flood, 250 g ai/ha; scale of 0 to 100 where 0 is no effect and 100 is complete control; 13 to 15 days
How it was run: as §2

[6] = test system: barnyardgrass (Echinochloa crus-galli); assay: Test C flooded paddy test plant response; conditions: Flood, 250 g ai/ha; scale of 0 to 100 where 0 is no effect and 100 is complete control; 13 to 15 days
How it was run: as §2

[7] = test system: small-flower umbrella sedge (Cyperus difformis); assay: Test C flooded paddy test plant response; conditions: Flood, 250 g ai/ha; scale of 0 to 100 where 0 is no effect and 100 is complete control; 13 to 15 days
How it was run: as §2

[8] = test system: galium (catchweed bedstraw, Galium aparine); assay: Test D pre-/postemergence plant response
How it was run: (§3)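 Preemergence: seeds in loam/sand blend treated with test chemicals in non-phytotoxic solvent with surfactant; postemergence: plants at 2–18 cm (1- to 4-leaf stage) in peat-based medium sprayed likewise. Greenhouse 13 to 15 days, then visual rating vs controls, 0 (no effect) to 100 (complete control).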

[9] = test system: blackgrass (Alopecurus myosuroides); assay: Test D pre-/postemergence plant response
How it was run: as §3

[10] = test system: large (Lg) crabgrass (Digitaria sanguinalis); assay: Test D pre-/postemergence plant response
How it was run: as §3

[11] = test system: johnsongrass (Sorghum halepense); assay: Test D pre-/postemergence plant response
How it was run: as §3

[12] = test system: winter wheat (Triticum aestivum); assay: Test D pre-/postemergence plant response
How it was run: as §3

[13] = test system: lambsquarters (Chenopodium album); assay: Test D pre-/postemergence plant response
How it was run: as §3

[14] = test system: velvetleaf (Abutilon theophrasti); assay: Test D pre-/postemergence plant response
How it was run: as §3

[15] = 31 g ai/ha, Postemergence, 0 to 100 scale, 0 no effect, 100 complete control
[16] = 31 g ai/ha, Preemergence, 0 to 100 scale where 0 is no effect and 100 is complete control
[17] = 125 g ai/ha, postemergence, 0 to 100 scale, 0 no effect, 100 complete control
[18] = Preemergence, 125 g ai/ha, 0 to 100 scale where 0 is no effect and 100 is complete control
[19] = Postemergence, 16 g ai/ha, scale 0 to 100 (0 no effect, 100 complete control)
[20] = Postemergence, 31 g ai/ha, scale 0 to 100 (0 no effect, 100 complete control)
[21] = Postemergence, 62 g ai/ha, scale 0 to 100, 0 no effect, 100 complete control
[22] = Postemergence, 125 g ai/ha, scale 0 to 100, 0 no effect, 100 complete control
[23] = Preemergence, 16 g ai/ha, scale 0 to 100 (0 no effect, 100 complete control)
[24] = Preemergence, 31 g ai/ha, scale 0 to 100 (0 no effect, 100 complete control)
[25] = Preemergence, 62 g ai/ha, scale 0 to 100 (0 no effect, 100 complete control)
[26] = Preemergence, 125 g ai/ha, 0 to 100 scale (0 no effect, 100 complete control)

FC(F)c1cc(-c2c(Cl)cccc2Oc2ncc(Cl)cn2)on1 [Compound 120]
100: Plant response rating, Pigweed [1, 15] | Plant response rating, Pigweed [1, 16] | Plant response rating, Pigweed [1, 17] | Plant response rating, Barnyardgrass [3, 18] | Plant response rating, Foxtail, Giant [4, 16] | Plant response rating, Foxtail, Giant [4, 18] | Ducksalad plant response rating [5] | Plant response rating, Galium [8, 21] | Plant response rating, Galium [8, 22] | Plant response rating (scale 0 to 100), Crabgrass, Large ([10]; Preemergence, 125 g ai/ha) | Plant response rating, Crabgrass, Large [10, 24] | Plant response rating, Crabgrass, Large [10, 25] | Lambsquarters plant response rating [13, 19] | Lambsquarters plant response rating [13, 20] | Plant response rating, Lambsquarters [13, 21] | Plant response rating, Lambsquarters [13, 22] | Plant response rating (scale 0 to 100), Lambsquarters ([13]; Preemergence, 125 g ai/ha) | Plant response rating, Velvetleaf [14, 21] | Plant response rating, Velvetleaf [14, 22] | Plant response rating (scale 0 to 100), Velvetleaf ([14]; Preemergence, 125 g ai/ha) | Plant response rating, Velvetleaf [14, 25]
35: Blackgrass plant response rating [9, 20] | Plant response rating, Crabgrass, Large [10, 21]
40: Plant response rating, Corn (corn (Zea mays); 125 g ai/ha, postemergence) | Plant response rating, Wheat ([2]; 125 g ai/ha, postemergence) | Plant response rating, Foxtail, Giant [4, 15] | Plant response rating, Johnsongrass [11, 21]
65: Plant response rating, Crabgrass, Large [10, 22]
90: Plant response rating, Barnyardgrass [3, 16] | Plant response rating, Barnyardgrass [3, 17] | Plant response rating, Foxtail, Giant [4, 17] | Rice plant response rating (rice (Oryza sativa)) | Barnyardgrass plant response rating [6] | Plant response rating (scale 0 to 100), Galium ([8]; Preemergence, 125 g ai/ha) | Plant response rating, Galium [8, 23] | Plant response rating, Galium [8, 25] | Plant response rating (scale 0 to 100), Blackgrass ([9]; Preemergence, 125 g ai/ha) | Plant response rating, Blackgrass [9, 25] | Plant response rating, Lambsquarters [13, 25]
25: Crabgrass, Large plant response rating [10, 20]
0: Plant response rating, Wheat ([2]; 31 g ai/ha, Postemergence) | Wheat plant response rating [12, 19] | Wheat plant response rating [12, 20] | Plant response rating, Wheat [12, 21] | Plant response rating, Wheat [12, 22] | Plant response rating, Wheat [12, 23] | Plant response rating, Wheat [12, 24]
5: Johnsongrass plant response rating [11, 19] | Plant response rating (scale 0 to 100), Wheat ([12]; Preemergence, 125 g ai/ha) | Plant response rating, Wheat [12, 25]
85: Plant response rating, Johnsongrass [11, 22] | Velvetleaf plant response rating [14, 20]
70: Plant response rating, Blackgrass [9, 23] | Plant response rating, Lambsquarters [13, 23] | Velvetleaf plant response rating [14, 19]
75: Plant response rating, Velvetleaf [14, 24]
50: Plant response rating, Barnyardgrass [3, 15] | Plant response rating, Johnsongrass [11, 23] | Plant response rating, Velvetleaf [14, 23]
95: Sedge, Umbrella plant response rating [7] | Plant response rating, Johnsongrass [11, 25] | Plant response rating, Lambsquarters [13, 24]
30: Plant response rating, Corn (corn (Zea mays); 31 g ai/ha, Postemergence) | Crabgrass, Large plant response rating [10, 19] | Johnsongrass plant response rating [11, 20]
60: Plant response rating, Blackgrass [9, 21] | Plant response rating, Blackgrass [9, 24]
20: Blackgrass plant response rating [9, 19]
98: Galium plant response rating [8, 19] | Galium plant response rating [8, 20] | Plant response rating, Galium [8, 24] | Plant response rating, Crabgrass, Large [10, 23] | Plant response rating (scale 0 to 100), Johnsongrass ([11]; Preemergence, 125 g ai/ha)
55: Plant response rating, Blackgrass [9, 22] | Plant response rating, Johnsongrass [11, 24]

FC(F)c1cc(-c2c(Cl)cccc2Oc2ncc(Br)cn2)on1 [Compound 121]
95: Plant response rating, Galium [8, 22]
10: Crabgrass, Large plant response rating [10, 20]
30: Plant response rating, Wheat ([2]; 125 g ai/ha, postemergence) | Plant response rating, Blackgrass [9, 21]
5: Blackgrass plant response rating [9, 19]
45: Rice plant response rating (rice (Oryza sativa))
55: Plant response rating, Crabgrass, Large [10, 22]
25: Blackgrass plant response rating [9, 20]
80: Velvetleaf plant response rating [14, 20] | Plant response rating, Velvetleaf [14, 21]
70: Plant response rating, Barnyardgrass [3, 16] | Plant response rating, Foxtail, Giant [4, 15]
35: Johnsongrass plant response rating [11, 20]
50: Plant response rating, Barnyardgrass [3, 15] | Plant response rating, Blackgrass [9, 22]
0: Plant response rating, Wheat ([2]; 31 g ai/ha, Postemergence) | Wheat plant response rating [12, 20] | Plant response rating, Wheat [12, 21] | Plant response rating, Wheat [12, 22]
20: Plant response rating, Corn (corn (Zea mays); 31 g ai/ha, Postemergence)
90: Plant response rating, Barnyardgrass [3, 17] | Plant response rating, Barnyardgrass [3, 18] | Plant response rating, Foxtail, Giant [4, 17] | Ducksalad plant response rating [5] | Sedge, Umbrella plant response rating [7] | Galium plant response rating [8, 20]
85: Plant response rating, Velvetleaf [14, 22]
60: Barnyardgrass plant response rating [6] | Plant response rating, Johnsongrass [11, 21] | Plant response rating, Johnsongrass [11, 22]
40: Plant response rating, Corn (corn (Zea mays); 125 g ai/ha, postemergence) | Plant response rating, Crabgrass, Large [10, 21]
15: Crabgrass, Large plant response rating [10, 19]
100: Plant response rating, Pigweed [1, 15] | Plant response rating, Pigweed [1, 16] | Plant response rating, Pigweed [1, 17] | Plant response rating, Foxtail, Giant [4, 16] | Plant response rating, Foxtail, Giant [4, 18] | Plant response rating, Galium [8, 21] | Lambsquarters plant response rating [13, 20] | Plant response rating, Lambsquarters [13, 21] | Plant response rating, Lambsquarters [13, 22]

Fc1cccc(Oc2ncc(Cl)cn2)c1-c1cc(C2CC2)on1 [Compound 130]
35: Plant response rating, Wheat [12, 22]
20: Plant response rating, Corn (corn (Zea mays); 31 g ai/ha, Postemergence) | Plant response rating, Blackgrass [9, 21] | Crabgrass, Large plant response rating [10, 20] | Plant response rating, Crabgrass, Large [10, 21]
100: Plant response rating, Pigweed [1, 16] | Plant response rating, Pigweed [1, 17] | Pigweed plant response rating [1, 26] | Plant response rating, Barnyardgrass [3, 17] | Foxtail, Giant plant response rating [4, 26] | Plant response rating, Galium [8, 22] | Lambsquarters plant response rating [13, 20] | Plant response rating, Lambsquarters [13, 21] | Plant response rating, Lambsquarters [13, 22] | Plant response rating, Velvetleaf [14, 22]
5: Blackgrass plant response rating [9, 20] | Johnsongrass plant response rating [11, 20] | Plant response rating, Johnsongrass [11, 21] | Wheat plant response rating [12, 20]
75: Plant response rating, Velvetleaf [14, 21]
65: Barnyardgrass plant response rating [6]
95: Plant response rating, Galium [8, 21]
90: Barnyardgrass plant response rating [3, 26] | Plant response rating, Foxtail, Giant [4, 16] | Ducksalad plant response rating [5] | Sedge, Umbrella plant response rating [7] | Galium plant response rating [8, 20]
0: Blackgrass plant response rating [9, 19]
30: Rice plant response rating (rice (Oryza sativa)) | Plant response rating, Blackgrass [9, 22] | Plant response rating, Wheat [12, 21]
40: Plant response rating, Corn (corn (Zea mays); 125 g ai/ha, postemergence) | Plant response rating, Wheat ([2]; 125 g ai/ha, postemergence) | Plant response rating, Barnyardgrass [3, 15]
50: Plant response rating, Barnyardgrass [3, 16] | Plant response rating, Foxtail, Giant [4, 15]
25: Plant response rating, Crabgrass, Large [10, 22]
80: Plant response rating, Foxtail, Giant [4, 17] | Velvetleaf plant response rating [14, 20]
10: Crabgrass, Large plant response rating [10, 19] | Plant response rating, Johnsongrass [11, 22]
